Experimental data taken from US20070142389A1, “PIPERIDINE DERIVATIVES” (PFIZER INC., priority 2005, published 2007).
Where two headings read alike, the source gives them in different places.

Experiments:
[1] = biological target: T1, human norepinephrine transporter (Homo sapiens, UniProt P23975); assay: hNET Receptor Binding ([125I]-RTI-55 displacement, HEK-293 membranes)
T1 construct: expressed in transfected cells; host or cells: HEK-293
Method: (§1) Cell pastes of HEK-293 cells transfected with a human norepinephrine transporter cDNA were prepared. The cell pastes were resuspended in 400 to 700 mL of Krebs-HEPES assay buffer (25 mM HEPES, 122 mM NaCl, 3 mM KCl, 1.2 mM MgSO4, 1.3 mM CaCl2, and 11 mM glucose, pH 7.4) with a Polytron homogenizer at setting 7 for 30 seconds. Aliquots of membranes (5 mg/mL protein) were stored in liquid nitrogen until used.
The binding assay was set up in Beckman deep-well polypropylene plates with a total volume of 250 μL containing: compound of one of the Examples (10^−5M to 10^−12M), cell membranes, and 50 pM [^125I]-RTI-55 (Perkin Elmer, NEX-272; specific activity 2200 Ci/mmol). The reaction was incubated by gentle agitation for 90 minutes at room temperature and was terminated by filtration through Whatman GF/C filter plates using a Brandel 96-well plate harvester. Scintillation fluid (100 μL) was added to each well, and bound [^125I]-RTI-55 was determined using a Wallac Trilux Beta Plate Counter. Test compounds were run in duplicate, and specific binding was defined as the difference between binding in the presence and absence of 10 μM desipramine.
(§2) Excel and GraphPad Prism software were used for data calculation and analysis. IC50 values were converted to Ki values using the Cheng-Prusoff equation.

[2] = biological target: T2, human serotonin transporter (Homo sapiens, UniProt P31645); assay: hSERT Receptor Binding ([125I]-RTI-55 displacement, HEK-293 membranes)
T2 construct: expressed in transfected cells; host or cells: HEK-293
Method: as §1, with “serotonin” for “norepinephrine”, “Setting” for “setting”, “(about 2.5” for “(5”
Assays were set up in FlashPlates pre-coated with 0.1 % PEI in a total volume of 250 μL containing: compound of one of the Examples (10^−5M to 10^−12M), cell membanes, and 50 pM [^125l]-RTI-55 (Perkin Elmer, NEX-272; specific activity 2200 Ci/mmol). The reaction was incubated and gently agitated for 90 minutes at room temperature, and terminated by removal of assay volume. Plates were covered, and bound [^125I]-RTI-55 was determined using a Wallac Trilux Beta Plate Counter. Test compounds were run in duplicate, and specific binding was defined as the difference between binding in the presence and absence of 10 μM citalopram.
as §2

[3] = tested on: capsaicin-induced mechanical allodynia in a rat; assay: rat model of capsaicin-induced mechanical allodynia; type: in vivo; conditions: sc, read-out: % Inhibition of Allodynia
Method: Compounds of the present invention may be assayed for their ability to alleviate capsaicin-induced mechanical allodynia in a rat (e.g., Sluka (2002) J of Neuroscience, 22(13): 5687-5693). For example, a rat model of capsaicin-induced mechanical allodynia was carried out as follows:
On day 0, male Sprague-Dawley rats (about 150 g each) in the dark cycle were placed in suspended wire-bottom cages and allowed to acclimate for 0.5 hour in a darkened, quiet room. The day 0 paw withdrawal threshold (PWT) was determined on the left hind paw by Von Frey hair assessment using the Dixon up and down method. After assessment, the plantar muscle of the right hind paw was injected with 100 μL capsaicin (0.25% (w/v) in 10% ethanol, 10% Tween 80, in sterile saline). On day 6 the PWT of the left hind paw (contralateral from injection site) was determined for each animal. Animals from the day 6 prereads with PWT ≦11.7 g were considered allodynic responders and were regrouped so that each cage had similar mean PWT values. On day 7, responders were dosed subcutaneously with 10 mg compound/kg body weight, or with vehicle alone. The vehicle was phosphate buffered saline containing 2% Cremophor® EL (BASF Corp., Florham Park, N.J.). The contralateral PWT values were determined at 1 hour after the single dose, with the investigator blinded to the dosing scheme.
For each animal, the day 6 PWT value was subtracted from the 1 hour PWT value to give a delta PWT value that represents the change in PWT due to the 1 hour drug treatment. In addition, the day 6 PWT was subtracted from the day 0 PWT to give the baseline window of allodynia present in each animal. To determine % inhibition of allodynia of each animal normalized for vehicle controls, the following formula was used: % Inhibition of Allodynia =100× [(Delta PWT(drug)—mean Delta PWT(vehicle))/(Baseline—mean Delta PWT(vehicle))].
The mean percent inhibition of allodynia values (for eight animals assayed for each compound) +/− the standard error of the mean (SEM) are shown in Table 2.

[4] = hNET, HEK-293 cell membranes, 50 pM [125I]-RTI-55, Ki from IC50 by Cheng-Prusoff, read-out: NET Ki
[5] = hSERT, HEK-293 cell membranes, 50 pM [125I]-RTI-55, Ki from IC50 by Cheng-Prusoff, read-out: SERT Ki
[6] = male Sprague-Dawley rats, 10 mg/kg subcutaneously, PWT 1 hour after single dose, mean +/- SEM of eight animals, normalized for vehicle

T1 sequence (P23975 whole entry): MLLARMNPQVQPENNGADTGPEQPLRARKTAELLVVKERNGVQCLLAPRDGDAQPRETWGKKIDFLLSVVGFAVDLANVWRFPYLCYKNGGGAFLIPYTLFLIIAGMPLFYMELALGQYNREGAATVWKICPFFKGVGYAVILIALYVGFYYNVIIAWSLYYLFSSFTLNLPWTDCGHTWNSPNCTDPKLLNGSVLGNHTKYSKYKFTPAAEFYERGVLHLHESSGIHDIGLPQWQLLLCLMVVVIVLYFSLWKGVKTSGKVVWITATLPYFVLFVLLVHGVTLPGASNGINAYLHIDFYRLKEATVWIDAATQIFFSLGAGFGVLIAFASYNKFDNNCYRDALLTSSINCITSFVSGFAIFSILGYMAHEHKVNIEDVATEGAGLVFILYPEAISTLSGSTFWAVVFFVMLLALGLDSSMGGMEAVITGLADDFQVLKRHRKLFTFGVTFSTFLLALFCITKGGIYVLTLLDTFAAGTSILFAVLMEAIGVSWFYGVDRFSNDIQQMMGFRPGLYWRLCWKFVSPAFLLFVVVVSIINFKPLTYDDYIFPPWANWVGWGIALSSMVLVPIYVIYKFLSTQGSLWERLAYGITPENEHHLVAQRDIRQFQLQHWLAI
T2 sequence (P31645 whole entry): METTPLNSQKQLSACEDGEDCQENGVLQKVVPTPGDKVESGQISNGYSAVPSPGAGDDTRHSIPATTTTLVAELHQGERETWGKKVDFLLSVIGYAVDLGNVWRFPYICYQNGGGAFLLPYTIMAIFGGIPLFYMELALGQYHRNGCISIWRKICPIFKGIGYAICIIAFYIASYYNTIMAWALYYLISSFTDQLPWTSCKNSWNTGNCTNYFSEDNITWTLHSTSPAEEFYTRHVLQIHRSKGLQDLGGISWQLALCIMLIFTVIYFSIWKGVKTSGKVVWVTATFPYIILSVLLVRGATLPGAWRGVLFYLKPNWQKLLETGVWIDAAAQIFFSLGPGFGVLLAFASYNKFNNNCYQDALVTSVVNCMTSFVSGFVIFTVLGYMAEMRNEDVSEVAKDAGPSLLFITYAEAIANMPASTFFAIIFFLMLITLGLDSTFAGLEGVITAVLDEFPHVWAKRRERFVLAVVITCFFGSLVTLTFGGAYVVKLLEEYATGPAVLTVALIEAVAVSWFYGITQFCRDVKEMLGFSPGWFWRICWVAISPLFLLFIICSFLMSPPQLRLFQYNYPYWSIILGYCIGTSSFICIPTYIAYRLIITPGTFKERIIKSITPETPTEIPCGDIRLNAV

| SMILES | Ki [1, 4] [nM] | Ki [2, 5] [nM] | inhibition in vivo at 10 mg/kg [3, 6] [%] | Ki [1] [nM] | Ki [2] [nM] | inhibition in vivo at 10 mg/kg ([3]; 1 h) [%] |
| --- | --- | --- | --- | --- | --- | --- |
| CCOc1ncccc1OC[C@H]1CNCC[C@@H]1c1ccccc1 [Example 2, (3R,4S)-2-Ethoxy-3-(4-phenyl-piperidin-3-ylmethoxy)-pyridine] | 3290 | 6.51 | 1.4 |  |  |  |
| Cc1ccc(OC[C@@H]2CNCC[C@H]2c2ccccc2)cn1 [Example 22, (3S,4R)-2-Methyl-5-(4-phenyl-piperidin-3-ylmethoxy)-pyridine] | 263 | 3.47 |  |  |  |  |
| CCOc1ncccc1OC[C@@H]1CNCC[C@@H]1c1ccc(F)cc1 (single isomer, unassigned) [Example 57, (+)-cis-2-Ethoxy-3-[4-(4-fluoro-phenyl)-piperidin-3-ylmethoxy]-pyridine] |  |  |  | 193 | 34.8 |  |
| CCCOc1ncccc1OC[C@H]1CNCC[C@@H]1c1ccccc1 [Example 8, (3R,4S)-3-(4-Phenyl-piperidin-3-ylmethoxy)-2-propoxy-pyridine] | 1330 | 17 |  |  |  |  |
| COCc1ncccc1OC[C@@H]1CNCC[C@H]1c1ccccc1 [Example 31, (3S,4R)-2-Methoxymethyl-3-(4-phenyl-piperidin-3-ylmethoxy)-pyridine] | 102 | 890 |  |  |  |  |
| CCCc1ccccc1OC[C@@H]1CNCC[C@@H]1c1ccccc1 (relative stereo) [Example 53, cis-4-Phenyl-3-(2-propyl-phenoxymethyl)-piperidine] | 138 | 267 |  |  |  |  |
| NC(=O)c1cc(Cl)ccc1OC[C@@H]1CNCC[C@H]1c1ccccc1 [Example 37, (3S,4R)-5—CHloro-2-(4-phenyl-piperidin-3-ylmethoxy)-benzamide] | 1030 | 431 |  |  |  |  |
| c1ccc([C@@H]2CCNC[C@H]2COc2ccnc3ccsc23)cc1 [Example 35, (3S,4R)-7-(4-Phenyl-piperidin-3-ylmethoxy)-thieno[3,2-b]pyridine] | 14.6 | 8.4 |  |  |  | 5.5 |
| Cc1ccc(OC[C@H]2CNCC[C@@H]2c2ccccc2)nc1 [Example 5, (3R,4S)-5-Methyl-2-(4-phenyl-piperidin-3-ylmethoxy)-pyridine] | 2620 | 2.29 |  |  |  |  |
| COc1nccnc1OC[C@@H]1CNCC[C@H]1c1ccccc1 [Example 45, (3S,4R)-2-Methoxy-3-(4-phenyl-piperidin-3-ylmethoxy)-pyrazine] | 36.5 | 71.8 |  |  |  |  |
| COc1cc(C#N)ccc1OC[C@@H]1CNCC[C@H]1c1ccccc1 [Example 36, (3S,4R) 3-Methoxy-4-(4-phenyl-piperidin-3-ylmethoxy)-benzonitrile] | 101 | 13.7 |  |  |  |  |
| CCOc1ccccc1OC[C@@H]1CNCC[C@@H]1c1ccccc1 (relative stereo) [Example 52, cis-3-(2-Ethoxy-phenoxymethyl)-4-phenyl-piperidine] | 35 | 96 |  |  |  |  |
| CC(C)Cc1ncccc1OC[C@@H]1CNCC[C@H]1c1ccccc1 (racemic) [Example 62, (±)-trans-2-lsobutyl-3-(4-phenyl-piperidin-3-ylmethoxy)-pyridine] | 46.6 | 59.2 |  |  |  |  |
| COCc1cc(OC[C@@H]2CNCC[C@H]2c2ccccc2)[nH]n1 [Example 23, (3S,4R)-3-(5-Methoxymethyl-2H-pyrazol-3-yloxymethyl)-4-phenyl-piperidine] | 1520 | 1390 |  |  |  |  |
| CN(C)C(=O)c1ccc(OC[C@@H]2CNCC[C@H]2c2ccccc2)cc1 [Example 32, (3S,4R)-N,N-Dimethyl-4-(4-phenyl-piperidin-3-ylmethoxy)-benzamide] | 2940 | 861 |  |  |  |  |

Continued, in another order:

| Ki [1, 4] [nM] | Ki [2, 5] [nM] | SMILES | inhibition in vivo at 10 mg/kg [3, 6] [%] | Ki [1] [nM] | Ki [2] [nM] | inhibition in vivo at 10 mg/kg ([3]; 1 h) [%] |
| --- | --- | --- | --- | --- | --- | --- |
| 4.57 | 188 | COCCOc1ncccc1OC[C@@H]1CNCC[C@H]1c1ccccc1 [Example 11, (3S,4R)-2-(2-Methoxy-ethoxy)-3-(4-phenyl-piperidin-3-ylmethoxy)-pyridine] | 77.3 |  |  |  |
| 12.1 | 174 | NC(=O)c1ccc(OC[C@@H]2CNCC[C@H]2c2ccccc2)cc1 [Example 38, (3S,4R)-4-(4-Phenyl-piperidin-3-ylmethoxy)-benzamide] | 0.2 |  |  |  |
| 3.04 | 17.5 | CCCOc1ncccc1OC[C@@H]1CNCC[C@H]1c1ccccc1 [Example 9, (3S,4R)-3-(4-Phenyl-piperidin-3-ylmethoxy)-2-propoxy-pyridine] | 29.5 |  |  |  |
| 13.2 | 21.9 | CCCc1ncccc1OC[C@@H]1CNCC[C@H]1c1ccccc1 [Example 17, (3S,4R)-3-(4-Phenyl-piperidin-3-ylmethoxy)-2-propyl-pyridine] | 2.6 |  |  |  |
| 4.18 | 40.6 | CC(C)Oc1ncccc1OC[C@@H]1CNCC[C@H]1c1ccccc1 [Example 12, (3S,4R)-2-lsopropoxy-3-(4-phenyl-piperidin-3-ylmethoxy)-pyridine] | 66.4 |  |  |  |
| 3.34 | 17.7 | COc1ncccc1OC[C@@H]1CNCC[C@H]1c1ccccc1 [Example 7, (3S,4R)-2-Methoxy-3-(4-phenyl-piperidin-3-ylmethoxy)-pyridine] | 67.3 |  |  |  |
| 12.1 | 164 | COCCCOc1ncccc1OC[C@@H]1CNCC[C@H]1c1ccccc1 [Example 14, (3S,4R)-2-(3-Methoxy-propoxy)-3-(4-phenyl-piperidin-3-ylmethoxy)-pyridine] | 22.7 |  |  |  |
| 1.7 | 626 | N#Cc1ccccc1OC[C@@H]1CNCC[C@H]1c1ccccc1 [Example 42, (3S, 4R)-2-(4-Phenyl-piperidin-3-ylmethoxy)-benzonitrile] |  |  |  |  |
| 7.48 | 23.8 | CCCCc1ncccc1OC[C@@H]1CNCC[C@H]1c1ccccc1 (racemic) [Example 61, (±)-trans-2-Butyl-3-(4-phenyl-piperidin-3-ylmethoxy)-pyridine] |  |  |  |  |
| 8.6 | 18.1 | NC(=O)c1ccc(OC[C@@H]2CNCC[C@H]2c2ccccc2)c(Cl)c1 [Example 33, (3S,4R)-3—CHloro-4-(4-phenyl-piperidin-3-ylmethoxy)-benzamide] |  |  |  |  |
| 3.83 | 24.3 | CCOc1ncccc1OC[C@H]1CNCC[C@@H]1c1ccccc1 (single isomer, unassigned) [Example 1] | 82.3 |  |  |  |
